Reference: patent US12012417B2, “N-substituted tetrahydrothienopyridine derivatives and uses thereof” (NOVARTIS AG, priority 2018, dated 2024)

Experiments:
[1] = system: Dengue 1 virus MY97-10245; assay: High-content imaging cell-based flavivirus immunodetection (HCl-CFI) assay, Dengue 1; settings: Dengue virus, A549, 48 h, read-out: Dengue 1 virus MY97-10245 in A549 using HCl [Inhibitor/IC50] Qualified AC50
[2] = system: Dengue 2 virus MY97-10340; assay: High-content imaging cell-based flavivirus immunodetection (HCl-CFI) assay, Dengue 2; settings: Dengue virus, A549, 48 h, read-out: Dengue 2 virus MY97-10340 in A549 using HCl [Inhibitor/IC50] Qualified AC50, A549 cells, MOI 0.3, 48 h, viral E protein expression
Protocol: High-Content Imaging Cell-Based Flavivirus Immunodetection (HCl-CFI) Assay
A549 cells (7×10^3 cells per well) in a 384-well plate were infected with the DENV-2 (MY97-10340) strain at an MOI of 0.3. The cells were then treated with 3-fold, 10-point serial dilutions of test compound. After 48 h, the cells were fixed with paraformadehyde, and the viral E protein detected with 4G2 antibody labeled with Dylight™ 488 (GenScript). Cell nuclei were stained with Draq5 (Pierce/Thermo), and images were taken on the Opera imaging system (Perkin Elmer). A dose-response curve was plotted to calculate the effective concentration of compound needed to reduce expression of E protein by 50% (EC50) using GraphPad Prism.
The resulted EC50 values are summarized in Table 1 below: ±≥1 μM; 1 μM>++≥0.1 μM; 0.1 μm>+++

[3] = system: Dengue 3 virus MY05-34640-WT-C6/36; assay: High-content imaging cell-based flavivirus immunodetection (HCl-CFI) assay, Dengue 3; settings: Dengue virus, A549, 48 h, read-out: Dengue 3 virus MY05-34640-WT-C6/36 in A549 using HCl [Inhibitor/IC50] Qualified AC50
[4] = system: Dengue 4 virus MY01-22713; assay: High-content imaging cell-based flavivirus immunodetection (HCl-CFI) assay, Dengue 4; settings: Dengue virus, A549, 48 h, read-out: Dengue 4 virus MY01-22713 in A549 using HCl [Inhibitor/IC50] Qualified AC50, A549 cells, 48 h, viral E protein expression

COc1cc(CC(=O)Nc2sc3c(c2C#N)CN(Cc2cccc(F)c2)CC3)ccc1S(N)(=O)=O [Example 22, N-(3-cyano-5-(3-fluorobenzyl)-4,5,6,7-tetrahydrothieno[3,2-c]pyridin-2-yl)-2-(3-methoxy-4-sulfamoylphenyl)acetamide]
EC50 [1]: 0.1 to 1 µM | EC50 [2]: < 0.1 µM | EC50 [3]: < 0.1 µM | EC50 [4]: < 0.1 µM

N#Cc1c(NC(=O)Cc2ccc3c(c2)CNS3(=O)=O)sc2c1CN(Cc1cccc(F)c1)CC2 [Example 23, N-(3-cyano-5-(3-fluorobenzyl)-4,5,6,7-tetrahydrothieno[3,2-c]pyridin-2-yl)-2-(1,1-dioxido-2,3-dihydrobenzo[d]isothiazol-5-yl)acetamide]
EC50 [1]: 0.1 to 1 µM | EC50 [2]: 0.1 to 1 µM | EC50 [3]: < 0.1 µM | EC50 [4]: 0.1 to 1 µM

COc1cc(S(N)(=O)=O)ccc1CC(=O)Nc1sc2c(c1C#N)CN(Cc1cccc(F)c1)CC2 [Example 24, N-(3-cyano-5-(3-fluorobenzyl)-4,5,6,7-tetrahydrothieno[3,2-c]pyridin-2-yl)-2-(2-methoxy-4-sulfamoylphenyl)acetamide]
EC50 [1]: 0.1 to 1 µM | EC50 [2]: 0.1 to 1 µM | EC50 [3]: < 0.1 µM | EC50 [4]: 0.1 to 1 µM

N#Cc1c(NC(=O)Cc2ccc3c(c2)S(=O)(=O)NC3)sc2c1CN(Cc1cccc(F)c1)CC2 [Example 25, N-(3-cyano-5-(3-fluorobenzyl)-4,5,6,7-tetrahydrothieno[3,2-c]pyridin-2-yl)-2-(1,1-dioxido-2,3-dihydrobenzo[d]isothiazol-6-yl)acetamide]
EC50 [1]: 0.1 to 1 µM | EC50 [2]: < 0.1 µM | EC50 [3]: < 0.1 µM | EC50 [4]: < 0.1 µM

N#Cc1c(NC(=O)Cc2ccc3c(c2)CNC3)sc2c1CN(Cc1cccc(F)c1)CC2 [Example 26, N-(3-cyano-5-(3-fluorobenzyl)-4,5,6,7-tetrahydrothieno[3,2-c]pyridin-2-yl)-2-(isoindolin-5-yl)acetamide]
EC50 [1]: > 1 µM | EC50 [2]: > 1 µM | EC50 [3]: > 1 µM | EC50 [4]: > 1 µM

CS(=O)(=O)c1ccc(CC(=O)Nc2sc3c(c2C#N)CN(Cc2cccc(F)c2)CC3)cc1C#N [Example 27, 2-(3-cyano-4-(methylsulfonyl)phenyl)-N-(3-cyano-5-(3-fluorobenzyl)-4,5,6,7-tetrahydrothieno[3,2-c]pyridin-2-yl)acetamide]
EC50 [1]: 0.1 to 1 µM | EC50 [2]: < 0.1 µM | EC50 [3]: < 0.1 µM | EC50 [4]: < 0.1 µM

CNS(=O)(=O)c1ccccc1CC(=O)Nc1sc2c(c1C#N)CN(Cc1cccc(F)c1)CC2 [Example 28, N-(3-cyano-5-(3-fluorobenzyl)-4,5,6,7-tetrahydrothieno[3,2-c]pyridin-2-yl)-2-(2-(N-methylsulfamoyl)phenyl)acetamide]
EC50 [1]: 0.1 to 1 µM | EC50 [2]: 0.1 to 1 µM | EC50 [3]: < 0.1 µM | EC50 [4]: < 0.1 µM

CNS(=O)(=O)c1ccc(CC(=O)Nc2sc3c(c2C#N)CN(Cc2cccc(F)c2)CC3)cc1 [Example 29, N-(3-cyano-5-(3-fluorobenzyl)-4,5,6,7-tetrahydrothieno[3,2-c]pyridin-2-yl)-2-(4-(N-methylsulfamoyl)phenyl)acetamide]
EC50 [1]: 0.1 to 1 µM | EC50 [2]: < 0.1 µM | EC50 [3]: < 0.1 µM | EC50 [4]: < 0.1 µM

COc1cc(CC(=O)Nc2sc3c(c2C#N)CN(Cc2cccc(F)c2)CC3)ccc1S(C)(=O)=O [Example 30, N-(3-cyano-5-(3-fluorobenzyl)-4,5,6,7-tetrahydrothieno[3,2-c]pyridin-2-yl)-2-(3-methoxy-4-(methylsulfonyl)phenyl)acetamide]
EC50 [1]: 0.1 to 1 µM | EC50 [2]: < 0.1 µM | EC50 [3]: < 0.1 µM | EC50 [4]: < 0.1 µM

COCCOc1cccc(CC(=O)Nc2sc3c(c2C#N)CN(Cc2cccc(F)c2)CC3)c1 [Example 31, N-(3-cyano-5-(3-fluorobenzyl)-4,5,6,7-tetrahydrothieno[3,2-c]pyridin-2-yl)-2-(3-(2-methoxyethoxy)phenyl)acetamide]
EC50 [1]: > 1 µM | EC50 [2]: 0.1 to 1 µM | EC50 [3]: 0.1 to 1 µM | EC50 [4]: 0.1 to 1 µM
